Drawing on patent publication US9096593B2, “Compounds and methods for kinase modulation, and indications therefor” (Plexxikon Inc., priority 2009, dated 2015), this text covers IC50 for one molecule.

The subject of this assay is Osteoclast precursor cells. As to the kind of experiment: Osteoclast differentiation assay (acid phosphatase readout). The following applies: RANKL and M-CSF. In kind it is cell-based. As for the experimental part:
Further, an osteoclast differentiation assay is used to assess the efficacy of Fms inhibitors for treating bone disease such as osteoarthritis. On day 0, Osteoclast Medium BulletKit (Lonza catalog #PT-8001, containing Media, FBS, L-Glutamine, PenStrep, RANKL, and M-CSF) media is thawed and the FBS, L-glutamine and PenStrep from the kit is added to 100 mL of Osteoclast Precursor Basal medium to provide the Osteoclast Precursor Growth Medium (OPGM). This is warmed to 37° C. Osteoclast precursor cells (Lonza catalog #2T-110) frozen in cryovial are warmed to 37° C. and transferred to a 50 mL conical tube. The cryovial is rinsed with OPGM and added dropwise to the conical tube of cells with swirling, then the volume is adjusted to 20-30 mL with addition of OPGM. The cells are centrifuged at 200×g for 15 minutes at room temperature and all but approximately 3 mL of supernatant is removed to a new conical tube. The cells are suspended in the remaining supernatant and the volume is adjusted to 10-15 mL with OPGM added dropwise with swirling. […] The cells are resuspended in the remaining supernatant, counted, and the volume adjusted with an appropriate amount of OPGM to provide approximately 1×10^5 cells/mL. […] The absorbance of each well is read at 405 nm on Safire plate reader. The absorbance reading is plotted vs. concentration to provide the IC50 for each compound.

As usually defined, the IC50 is the midpoint of a concentration-inhibition curve.

Each structure is given as a SMILES string.

Molecule `Clc1cnc2[nH]cc(Cc3ccc(NCc4ccc(Cl)nc4)nc3)c2c1` [Compound P-2003] gave a 50% inhibitory concentration (IC50) of less than 100 nM.
